Measured values published in ChEMBL document CHEMBL5038570, “Discovery of Novel Pyrrolo[2,3-d]pyrimidine-based Derivatives as Potent JAK/HDAC Dual Inhibitors for the Treatment of Refractory Solid Tumors” (J Med Chem, 2022).

Key:
[1] = target: T1, Protein deacetylase HDAC6 (Homo sapiens, UniProt Q9UBN7); experiment: Inhibition of HDAC6 (unknown origin) incubated for 60 mins by microplate reader analysis
T1 sequence (Q9UBN7 whole entry): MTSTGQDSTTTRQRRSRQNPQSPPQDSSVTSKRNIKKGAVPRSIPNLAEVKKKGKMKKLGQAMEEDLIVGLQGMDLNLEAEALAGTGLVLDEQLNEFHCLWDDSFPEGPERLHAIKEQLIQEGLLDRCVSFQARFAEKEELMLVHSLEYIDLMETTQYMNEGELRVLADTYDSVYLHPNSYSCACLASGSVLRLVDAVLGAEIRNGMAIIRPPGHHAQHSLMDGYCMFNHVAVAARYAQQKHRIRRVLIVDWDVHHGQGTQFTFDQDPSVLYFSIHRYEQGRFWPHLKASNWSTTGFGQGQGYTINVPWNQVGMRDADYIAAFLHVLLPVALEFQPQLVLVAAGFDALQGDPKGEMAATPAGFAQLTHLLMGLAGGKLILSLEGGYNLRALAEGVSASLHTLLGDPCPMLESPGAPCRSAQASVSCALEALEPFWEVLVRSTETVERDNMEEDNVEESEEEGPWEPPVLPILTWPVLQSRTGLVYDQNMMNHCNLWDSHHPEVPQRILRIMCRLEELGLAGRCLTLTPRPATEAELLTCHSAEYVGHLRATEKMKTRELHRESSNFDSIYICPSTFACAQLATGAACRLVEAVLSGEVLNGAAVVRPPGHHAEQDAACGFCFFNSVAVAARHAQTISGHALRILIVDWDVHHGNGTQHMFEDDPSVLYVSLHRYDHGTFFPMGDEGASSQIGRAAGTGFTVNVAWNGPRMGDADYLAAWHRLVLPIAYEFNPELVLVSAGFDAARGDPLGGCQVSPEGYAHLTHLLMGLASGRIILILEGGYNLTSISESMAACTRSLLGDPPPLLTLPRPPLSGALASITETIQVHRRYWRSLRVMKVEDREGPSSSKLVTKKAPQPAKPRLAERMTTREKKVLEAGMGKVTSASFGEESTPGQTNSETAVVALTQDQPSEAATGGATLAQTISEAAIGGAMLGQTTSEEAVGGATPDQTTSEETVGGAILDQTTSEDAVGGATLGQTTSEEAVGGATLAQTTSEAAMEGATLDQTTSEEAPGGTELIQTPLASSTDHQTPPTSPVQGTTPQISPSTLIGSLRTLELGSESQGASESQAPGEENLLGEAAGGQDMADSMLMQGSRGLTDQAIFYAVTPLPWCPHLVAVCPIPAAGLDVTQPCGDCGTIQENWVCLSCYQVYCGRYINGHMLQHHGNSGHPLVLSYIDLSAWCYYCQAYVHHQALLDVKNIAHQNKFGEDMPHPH

[2] = target: Tyrosine-protein kinase JAK2 (Homo sapiens, UniProt O60674); experiment: Inhibition of JAK2 (unknown origin) preincubated for 60 mins followed by reagent A addition and measured after 60 mins in presence of ATP by using microplate reader method
Chain of Tyrosine-protein kinase JAK2 (O60674 whole entry): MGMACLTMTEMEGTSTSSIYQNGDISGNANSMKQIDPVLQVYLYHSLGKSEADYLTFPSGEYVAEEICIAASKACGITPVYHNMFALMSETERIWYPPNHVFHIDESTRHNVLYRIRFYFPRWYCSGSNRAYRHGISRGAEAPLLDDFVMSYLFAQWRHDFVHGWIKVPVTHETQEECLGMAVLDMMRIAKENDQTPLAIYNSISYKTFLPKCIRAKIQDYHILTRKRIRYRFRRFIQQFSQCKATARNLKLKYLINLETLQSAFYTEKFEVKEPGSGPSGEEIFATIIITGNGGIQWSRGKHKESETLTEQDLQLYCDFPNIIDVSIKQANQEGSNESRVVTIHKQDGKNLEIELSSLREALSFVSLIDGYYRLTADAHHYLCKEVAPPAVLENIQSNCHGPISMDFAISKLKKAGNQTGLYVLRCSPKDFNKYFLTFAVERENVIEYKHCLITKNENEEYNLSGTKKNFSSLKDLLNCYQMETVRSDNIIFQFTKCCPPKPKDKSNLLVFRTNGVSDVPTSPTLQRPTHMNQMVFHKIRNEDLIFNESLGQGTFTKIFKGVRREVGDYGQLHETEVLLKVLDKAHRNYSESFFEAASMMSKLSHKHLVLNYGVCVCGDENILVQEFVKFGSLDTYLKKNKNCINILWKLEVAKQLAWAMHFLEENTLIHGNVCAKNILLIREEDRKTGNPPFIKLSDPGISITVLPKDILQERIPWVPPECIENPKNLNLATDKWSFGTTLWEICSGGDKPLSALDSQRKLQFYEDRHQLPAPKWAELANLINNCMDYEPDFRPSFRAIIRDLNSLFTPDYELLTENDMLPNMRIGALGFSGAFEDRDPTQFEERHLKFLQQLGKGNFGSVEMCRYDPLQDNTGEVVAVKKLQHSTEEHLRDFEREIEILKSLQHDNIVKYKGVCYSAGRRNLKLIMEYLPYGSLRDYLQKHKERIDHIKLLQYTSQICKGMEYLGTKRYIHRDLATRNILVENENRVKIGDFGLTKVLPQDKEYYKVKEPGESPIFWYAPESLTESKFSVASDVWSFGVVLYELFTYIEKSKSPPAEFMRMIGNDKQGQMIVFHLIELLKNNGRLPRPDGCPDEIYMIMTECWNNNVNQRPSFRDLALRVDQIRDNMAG

[3] = target: T2, Protein deacetylase HDAC6 (Homo sapiens) (UniProt Q9UBN7); experiment: Inhibition of HDAC6 (unknown origin) at 10 nM incubated for 60 mins by microplate reader analysis relative to control
T2 sequence (whole entry): T1 sequence (Q9UBN7 whole entry)

[4] = target: Histone deacetylase 1 (Homo sapiens, UniProt Q13547); experiment: Inhibition of HDAC1 (unknown origin) incubated for 60 mins using microplate reader analysis
Chain of Histone deacetylase 1 (Q13547 whole entry): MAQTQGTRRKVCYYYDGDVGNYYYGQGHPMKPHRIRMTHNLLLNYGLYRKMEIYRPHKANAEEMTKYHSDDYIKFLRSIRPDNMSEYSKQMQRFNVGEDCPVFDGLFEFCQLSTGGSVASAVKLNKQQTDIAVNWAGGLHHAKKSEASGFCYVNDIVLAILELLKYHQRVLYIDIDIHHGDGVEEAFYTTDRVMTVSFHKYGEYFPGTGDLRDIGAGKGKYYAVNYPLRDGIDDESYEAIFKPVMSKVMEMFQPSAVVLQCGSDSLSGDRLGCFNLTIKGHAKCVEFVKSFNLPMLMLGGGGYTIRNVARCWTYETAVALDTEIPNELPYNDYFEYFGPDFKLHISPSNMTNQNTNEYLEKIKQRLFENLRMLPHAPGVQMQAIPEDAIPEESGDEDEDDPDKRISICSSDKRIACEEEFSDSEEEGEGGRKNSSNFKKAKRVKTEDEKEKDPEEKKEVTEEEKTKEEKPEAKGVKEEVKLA

[5] = target: Non-receptor tyrosine-protein kinase TYK2 (Homo sapiens, UniProt P29597); experiment: Inhibition of TYK2 (unknown origin) incubated for 40 min in presence of ATP by microplate reader analysis
Chain of Non-receptor tyrosine-protein kinase TYK2 (P29597 whole entry): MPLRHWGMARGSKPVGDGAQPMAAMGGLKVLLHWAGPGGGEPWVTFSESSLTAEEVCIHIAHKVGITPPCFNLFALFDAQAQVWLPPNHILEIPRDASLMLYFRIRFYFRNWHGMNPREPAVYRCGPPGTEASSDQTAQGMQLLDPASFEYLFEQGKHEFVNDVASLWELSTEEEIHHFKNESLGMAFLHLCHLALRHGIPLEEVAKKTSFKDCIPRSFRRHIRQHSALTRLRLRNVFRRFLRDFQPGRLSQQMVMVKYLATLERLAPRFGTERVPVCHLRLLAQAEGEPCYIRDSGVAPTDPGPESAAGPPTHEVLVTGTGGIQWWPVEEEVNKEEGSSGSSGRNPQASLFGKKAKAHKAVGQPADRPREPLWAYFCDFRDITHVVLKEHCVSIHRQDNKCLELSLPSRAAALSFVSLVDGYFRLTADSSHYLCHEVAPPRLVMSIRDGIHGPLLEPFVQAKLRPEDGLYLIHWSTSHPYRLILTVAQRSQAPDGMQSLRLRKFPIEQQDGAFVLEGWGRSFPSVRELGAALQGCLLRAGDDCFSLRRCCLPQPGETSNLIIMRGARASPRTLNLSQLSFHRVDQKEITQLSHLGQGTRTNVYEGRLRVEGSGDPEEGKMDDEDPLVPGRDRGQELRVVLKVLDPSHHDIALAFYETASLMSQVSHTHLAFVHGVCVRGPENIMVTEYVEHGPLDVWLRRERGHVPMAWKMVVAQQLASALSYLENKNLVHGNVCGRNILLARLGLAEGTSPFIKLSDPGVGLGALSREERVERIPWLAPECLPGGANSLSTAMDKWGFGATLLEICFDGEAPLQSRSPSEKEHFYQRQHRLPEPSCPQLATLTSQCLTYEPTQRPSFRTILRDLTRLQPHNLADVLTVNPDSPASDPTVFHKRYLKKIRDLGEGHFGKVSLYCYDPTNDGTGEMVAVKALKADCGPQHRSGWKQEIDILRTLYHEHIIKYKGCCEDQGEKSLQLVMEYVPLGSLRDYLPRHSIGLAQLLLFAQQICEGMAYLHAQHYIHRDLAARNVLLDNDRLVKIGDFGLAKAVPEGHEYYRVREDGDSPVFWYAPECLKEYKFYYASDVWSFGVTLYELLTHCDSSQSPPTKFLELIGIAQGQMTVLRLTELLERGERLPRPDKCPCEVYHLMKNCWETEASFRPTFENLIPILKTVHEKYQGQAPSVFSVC

[6] = target: Tyrosine-protein kinase JAK1 (Homo sapiens, UniProt P23458); experiment: Inhibition of JAK1 (unknown origin) preincubated for 60 mins followed by reagent A addition and measured after 60 mins in presence of ATP by using microplate reader method
Chain of Tyrosine-protein kinase JAK1 (P23458 whole entry): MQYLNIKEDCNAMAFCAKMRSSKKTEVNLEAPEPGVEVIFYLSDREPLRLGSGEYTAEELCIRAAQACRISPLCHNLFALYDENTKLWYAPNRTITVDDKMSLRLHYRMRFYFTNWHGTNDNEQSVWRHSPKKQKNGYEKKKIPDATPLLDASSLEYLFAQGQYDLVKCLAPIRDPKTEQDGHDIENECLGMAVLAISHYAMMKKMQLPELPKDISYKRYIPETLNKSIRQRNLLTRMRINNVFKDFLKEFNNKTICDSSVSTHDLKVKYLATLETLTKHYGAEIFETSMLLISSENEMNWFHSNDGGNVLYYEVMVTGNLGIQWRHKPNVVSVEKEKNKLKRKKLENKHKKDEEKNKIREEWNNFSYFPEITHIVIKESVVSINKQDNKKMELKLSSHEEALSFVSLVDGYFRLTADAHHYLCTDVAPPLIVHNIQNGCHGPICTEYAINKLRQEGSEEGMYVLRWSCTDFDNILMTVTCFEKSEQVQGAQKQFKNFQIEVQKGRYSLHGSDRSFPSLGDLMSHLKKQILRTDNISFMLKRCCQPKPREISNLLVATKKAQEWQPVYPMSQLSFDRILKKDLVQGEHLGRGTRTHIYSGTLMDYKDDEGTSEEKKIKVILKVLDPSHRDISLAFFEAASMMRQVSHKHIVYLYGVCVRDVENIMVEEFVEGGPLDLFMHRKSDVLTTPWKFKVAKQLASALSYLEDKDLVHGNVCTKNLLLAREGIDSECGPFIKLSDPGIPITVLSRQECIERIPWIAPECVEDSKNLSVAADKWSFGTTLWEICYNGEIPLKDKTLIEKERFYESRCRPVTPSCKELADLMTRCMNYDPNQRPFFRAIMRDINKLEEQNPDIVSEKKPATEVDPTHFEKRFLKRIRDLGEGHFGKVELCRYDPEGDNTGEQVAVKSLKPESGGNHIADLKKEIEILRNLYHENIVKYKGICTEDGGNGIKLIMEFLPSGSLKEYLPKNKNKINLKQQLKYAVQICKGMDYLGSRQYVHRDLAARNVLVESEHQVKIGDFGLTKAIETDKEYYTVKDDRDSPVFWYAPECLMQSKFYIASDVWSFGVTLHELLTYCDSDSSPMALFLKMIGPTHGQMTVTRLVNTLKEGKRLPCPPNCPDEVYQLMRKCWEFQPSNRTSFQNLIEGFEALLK

[7] = target: T3, Tyrosine-protein kinase JAK3 (Homo sapiens, UniProt P52333); experiment: Inhibition of JAK3 (unknown origin) preincubated for 60 mins followed by reagent A addition and measured after 60 mins in presence of ATP by using microplate reader method
T3 sequence (P52333 whole entry): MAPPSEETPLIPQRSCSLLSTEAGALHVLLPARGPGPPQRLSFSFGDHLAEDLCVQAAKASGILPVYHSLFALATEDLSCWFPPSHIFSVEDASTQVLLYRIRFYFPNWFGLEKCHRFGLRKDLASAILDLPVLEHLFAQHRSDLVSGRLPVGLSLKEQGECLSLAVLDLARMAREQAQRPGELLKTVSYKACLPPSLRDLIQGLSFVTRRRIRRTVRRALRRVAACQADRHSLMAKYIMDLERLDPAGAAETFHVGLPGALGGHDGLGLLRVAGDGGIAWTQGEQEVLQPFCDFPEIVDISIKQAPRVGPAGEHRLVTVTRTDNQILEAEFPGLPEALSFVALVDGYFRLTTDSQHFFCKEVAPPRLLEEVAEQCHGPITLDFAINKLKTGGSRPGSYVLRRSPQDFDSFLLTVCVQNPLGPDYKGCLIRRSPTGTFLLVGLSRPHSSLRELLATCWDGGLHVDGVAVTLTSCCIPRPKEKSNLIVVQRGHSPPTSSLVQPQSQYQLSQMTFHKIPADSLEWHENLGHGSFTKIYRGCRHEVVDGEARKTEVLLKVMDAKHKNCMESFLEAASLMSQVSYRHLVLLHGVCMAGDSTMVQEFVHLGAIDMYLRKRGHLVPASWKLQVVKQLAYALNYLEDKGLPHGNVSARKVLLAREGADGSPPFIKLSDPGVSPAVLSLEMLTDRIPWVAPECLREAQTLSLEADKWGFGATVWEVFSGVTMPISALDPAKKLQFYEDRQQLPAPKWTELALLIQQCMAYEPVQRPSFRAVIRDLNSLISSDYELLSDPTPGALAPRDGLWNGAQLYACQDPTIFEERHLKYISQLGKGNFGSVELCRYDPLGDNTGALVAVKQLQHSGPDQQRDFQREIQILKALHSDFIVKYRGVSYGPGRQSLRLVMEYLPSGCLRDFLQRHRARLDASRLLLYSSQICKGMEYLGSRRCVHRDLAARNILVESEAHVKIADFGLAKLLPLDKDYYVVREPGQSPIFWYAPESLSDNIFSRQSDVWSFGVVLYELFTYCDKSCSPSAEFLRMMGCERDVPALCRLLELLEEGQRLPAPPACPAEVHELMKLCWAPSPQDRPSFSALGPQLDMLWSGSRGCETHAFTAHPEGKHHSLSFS

[8] = tested on: CAL-51; experiment: cells; assay type: functional, cell-based; settings: Homo sapiens, CAL-51, 72 h
[9] = tested on: 4T1; experiment: cells; assay type: functional, cell-based; settings: Mus musculus, 4T1, 72 h
[10] = tested on: MDA-MB-468; experiment: cells; assay type: functional, cell-based; settings: Homo sapiens, MDA-MB-468, 72 h
[11] = tested on: MDA-MB-231; experiment: cells; assay type: functional, cell-based; settings: Homo sapiens, MDA-MB-231, 72 h
[12] = tested on: BT-549; experiment: cells; assay type: functional, cell-based; settings: Homo sapiens, BT-549, 72 h

SMILES	IC50 [1]	IC50 [2]	inhibition [3]	other results
COc1ccc(Cn2ccc3cnc(Nc4cnn(CCCCCC(=O)NO)c4)nc32)cc1		> 100 nM	46%	
O=C(CCCCCn1cc(Nc2ncc3ccn(CCc4ccccc4)c3n2)cn1)NO		> 100 nM	41%	
O=C(CCCCCCn1cc(Nc2nc(Nc3cccc(Cl)c3)c3ccccc3n2)cn1)NO		9400 nM		
O=C(CCCCCCn1cc(Nc2ncc3ccn(CC4CCCCC4)c3n2)cn1)NO	88 nM	69 nM		
Cc1ccc(Cn2ccc3cnc(Nc4cnn(CCCCCC(=O)NO)c4)nc32)cc1		> 100 nM	34%	
O=C(CCCCCCn1cc(Nc2ncc3ccn(CC4CC4)c3n2)cn1)NO	16 nM	> 100 nM		
O=C(CCCCCn1cc(Nc2ncc3ccn(Cc4ccc(F)cc4)c3n2)cn1)NO		> 100 nM	46%	
O=C(CCCCCCn1cc(Nc2ncc3ccn(Cc4ccc(Cl)cc4)c3n2)cn1)NO		> 100 nM	39%	
O=C(CCCCCCn1cc(Nc2ncc3ccn(Cc4ccc(F)cc4)c3n2)cn1)NO		> 100 nM	62%	
COc1cccc(Cn2ccc3cnc(Nc4cnn(CCCCCC(=O)NO)c4)nc32)c1	37.6 nM	124 nM		
O=C(CCCCCCn1cc(Nc2nccc(-c3cc(F)cc(F)c3)n2)cn1)NO		2660 nM		
Cc1ccc(Cn2ccc3cnc(Nc4cnn(CCCCCCC(=O)NO)c4)nc32)cc1		> 100 nM	38%	
O=C(CCCCCCn1cc(Nc2ncc3ccn(CCc4ccccc4)c3n2)cn1)NO		> 100 nM	49%	
O=C(CCCCCCn1cc(Nc2ncc3ccn(C4CCCC4)c3n2)cn1)NO	22 nM	> 100 nM		
COc1cccc(Cn2ccc3cnc(Nc4cnn(CCCCCCC(=O)NO)c4)nc32)c1	28.8 nM	209 nM		
COc1ccc(Cn2ccc3cnc(Nc4cnn(CCCCCCC(=O)NO)c4)nc32)cc1		> 100 nM	40%	
O=C(CCCCCn1cc(Nc2ncc3ccn(Cc4ccc(Cl)cc4)c3n2)cn1)NO		> 100 nM	38%	

Compounds with a lower IC50 [2], results first:

IC50 [1]	IC50 [2]	inhibition [3]	SMILES	other results
13.8 nM	33 nM		O=C(CCCCCn1cc(Nc2ncc3ccn(Cc4ccccc4)c3n2)cn1)NO	
5.9 nM	15.7 nM		CS(=O)(=O)c1ccc(-n2ccc3cnc(Nc4cnn(CCCCCCC(=O)NO)c4)nc32)cc1	
34.4 nM	17.7 nM		O=C(CCCCCn1cc(Nc2ncc3ccn(Cc4cccc(Cl)c4)c3n2)cn1)NO	
10.8 nM	9.8 nM		CS(=O)(=O)c1ccc(-n2ccc3cnc(Nc4cnn(CCCCCC(=O)NO)c4)nc32)cc1	
13.1 nM	16.8 nM		O=C(CCCCCCn1cc(Nc2ncc3ccn(-c4ccccc4)c3n2)cn1)NO	IC50 [4]: 52.1 nM; IC50 [5]: 23.5 nM; IC50 [6]: 19.6 nM; IC50 [7]: 81.2 nM
36.8 nM	39.8 nM		O=C(CCCCCCn1cc(Nc2ncc3ccn(Cc4cccc(Cl)c4)c3n2)cn1)NO	
14.7 nM	15.7 nM		O=C(CCCCCCn1cc(Nc2ncc3ccn(Cc4cccc(F)c4)c3n2)cn1)NO	IC50 [8]: 1280 nM; IC50 [4]: 92.1 nM; IC50 [9]: 3720 nM; IC50 [5]: 21.7 nM; IC50 [10]: 2450 nM; IC50 [6]: 19.9 nM; IC50 [7]: 16.1 nM; IC50 [11]: 3940 nM; IC50 [12]: 3020 nM
12.5 nM	51 nM		O=C(CCCCCCn1cc(Nc2ncc3ccn(Cc4ccccc4)c3n2)cn1)NO	
33.4 nM	48.2 nM		O=C(CCCCCCn1cc(Nc2ncc3ccn(-c4ccc(Cl)cc4)c3n2)cn1)NO	
21.6 nM	32.9 nM		O=C(CCCCCCn1cc(Nc2ncc3ccn(-c4ccc(F)cc4)c3n2)cn1)NO	
15.3 nM	10 nM		O=C(CCCCCn1cc(Nc2ncc3ccn(Cc4ccccc4F)c3n2)cn1)NO	IC50 [4]: 145 nM; IC50 [5]: 13.3 nM; IC50 [6]: 32.3 nM; IC50 [7]: 18.4 nM
20.2 nM	54.8 nM		O=C(CCCCCCn1cc(Nc2ncc3ccn(-c4ccc(Br)cc4)c3n2)cn1)NO	
11.3 nM	17.5 nM		O=C(CCCCCn1cc(Nc2ncc3ccn(-c4ccc(Br)cc4)c3n2)cn1)NO	
45 nM	24.8 nM		O=C(CCCCCn1cc(Nc2ncc3ccn(Cc4ccccc4Cl)c3n2)cn1)NO	
13.7 nM	4.1 nM		O=C(CCCCCn1cc(Nc2ncc3ccn(Cc4cccc(F)c4)c3n2)cn1)NO	IC50 [4]: 173 nM; IC50 [6]: 8.7 nM; IC50 [7]: 12.6 nM
41.5 nM	30.8 nM		O=C(CCCCCCn1cc(Nc2ncc3ccn(Cc4ccccc4Cl)c3n2)cn1)NO	
